Results published in ChEMBL document CHEMBL4699613, “Synthesis and biological evaluation of indolylglyoxylamide bisphosphonates, antimitotic microtubule-targeting derivatives of indibulin with improved aqueous solubility” (Bioorg Med Chem Lett, 2020).

Assays:
[1] = test system: MCF7; assay: Cytotoxicity against human MCF7 cells assessed as cell growth inhibition measured after 24 to 48 hrs by SRB assay; format: functional, cell-based
[2] = test system: HCT-116; assay: Cytotoxicity against human HCT-116 cells assessed as cell growth inhibition; format: functional, cell-based
[3] = test system: Paracentrotus lividus; assay: Antimitotic activity against sea urchin embryo assessed as cleavage arrest measured 2.5 to 6 hrs post-fertilization by light microscopy analysis; format: functional; conditions: time hrs 2.5-6
[4] = test system: DU-145; assay: Cytotoxicity against human DU-145 cells assessed as cell growth inhibition; format: functional, cell-based
[5] = test system: T47D; assay: Cytotoxicity against human T47D cells assessed as cell growth inhibition; format: functional, cell-based
[6] = test system: Paracentrotus lividus; assay: Induction of microtubule destabilization in sea urchin embryo assessed as embryo spinning measured after 0.5 to 20 hrs; format: tissue-based; conditions: time hrs 0.5-20
[7] = test system: SK-OV-3; assay: Cytotoxicity against human SK-OV-3 cells assessed as cell growth inhibition; format: functional, cell-based
[8] = test system: A549; assay: Cytotoxicity against human A549 cells assessed as cell growth inhibition; format: functional, cell-based
[9] = test system: Paracentrotus lividus; assay: Antimitotic activity against sea urchin embryo assessed as cleavage alteration measured 2.5 to 6 hrs post-fertilization by light microscopy analysis; format: functional; conditions: time hrs 2.5-6
[10] = test system: PC-3; assay: Cytotoxicity against human PC-3 cells assessed as cell growth inhibition; format: functional, cell-based
[11] = Aggregation property of the compound in water; format: physicochemical; conditions: buffer
[12] = test system: Paracentrotus lividus; assay: Antimitotic activity against sea urchin embryo assessed as cleavage alteration measured 2.5 to 5.5 hrs post-fertilization using compound stored for 1 hr in 96% EtOH at room temperature by light microscopy analysis; format: functional; conditions: time hrs 2.5-5.5
[13] = test system: Paracentrotus lividus; assay: Antimitotic activity against sea urchin embryo assessed as cleavage alteration measured 2.5 to 5.5 hrs post-fertilization using compound stored for 1 month in 96% EtOH at room temperature by light microscopy analysis; format: functional; conditions: time hrs 2.5-5.5
[14] = test system: Paracentrotus lividus; assay: Antimitotic activity against sea urchin embryo assessed as cleavage arrest measured 2.5 to 5.5 hrs post-fertilization using compound stored for 1 month in 96% EtOH at room temperature by light microscopy analysis; format: functional; conditions: time hrs 2.5-5.5
[15] = test system: Paracentrotus lividus; assay: Antimitotic activity against sea urchin embryo assessed as cleavage arrest measured 2.5 to 5.5 hrs post-fertilization using compound stored for 1 hr in 96% EtOH at room temperature by light microscopy analysis; format: functional; conditions: time hrs 2.5-5.5
[16] = test system: Paracentrotus lividus; assay: Antimitotic activity against sea urchin embryo assessed as cleavage arrest measured 2.5 to 5.5 hrs post-fertilization using compound stored for 2 days in 96% EtOH at room temperature by light microscopy analysis; format: functional; conditions: time hrs 2.5-5.5
[17] = test system: Paracentrotus lividus; assay: Antimitotic activity against sea urchin embryo assessed as cleavage arrest measured 2.5 to 5.5 hrs post-fertilization using compound stored for 4 days in 96% EtOH at room temperature by light microscopy analysis; format: functional; conditions: time hrs 2.5-5.5
[18] = test system: Paracentrotus lividus; assay: Antimitotic activity against sea urchin embryo assessed as cleavage alteration measured 2.5 to 5.5 hrs post-fertilization using compound stored for 4 days in 96% EtOH at room temperature by light microscopy analysis; format: functional; conditions: time hrs 2.5-5.5
[19] = test system: Paracentrotus lividus; assay: Antimitotic activity against sea urchin embryo assessed as cleavage alteration measured 2.5 to 5.5 hrs post-fertilization using compound stored for 2 days in 96% EtOH at room temperature by light microscopy analysis; format: functional; conditions: time hrs 2.5-5.5
[20] = test system: HFF; assay: Cytotoxicity against human HFF cells assessed as cell growth inhibition; format: cell-based
[21] = test system: A-375; assay: Cytotoxicity against human A-375 cells assessed as cell growth inhibition; format: functional, cell-based
[22] = test system: Paracentrotus lividus; assay: Antimitotic activity against sea urchin embryo assessed as cleavage arrest measured 3 to 6 hrs post-fertilization by light microscopy analysis; format: functional; conditions: time hrs 3-6
[23] = test system: Paracentrotus lividus; assay: Antimitotic activity against sea urchin embryo assessed as cleavage alteration measured 3 to 6 hrs post-fertilization by light microscopy analysis; format: functional; conditions: time hrs 3-6
[24] = test system: BXPC-3; assay: Cytotoxicity against human BXPC-3 cells assessed as cell growth inhibition measured after 72 hrs by MTT assay; format: functional, cell-based; conditions: BXPC-3, 72 h
[25] = test system: Ca-Ski; assay: Cytotoxicity against human Ca-Ski cells assessed as cell growth inhibition; format: functional, cell-based
[26] = test system: SiHa; assay: Cytotoxicity against human SiHa cells assessed as cell growth inhibition; format: functional, cell-based
[27] = test system: CFPAC-1; assay: Cytotoxicity against human CFPAC-1 cells assessed as cell growth inhibition measured after 72 hrs by MTT assay; format: functional, cell-based; conditions: CFPAC-1, 72 h
[28] = test system: PANC-1; assay: Cytotoxicity against human PANC-1 cells assessed as cell growth inhibition measured after 72 hrs by MTT assay; format: functional, cell-based; conditions: PANC-1, 72 h
[29] = test system: HeLa; assay: Cytotoxicity against human HeLa cells assessed as cell growth inhibition; format: functional, cell-based
[30] = Cytotoxicity against human KKU-100 cells assessed as cell growth inhibition after 48 hrs; format: functional, cell-based; conditions: KKU100, 48 h
[31] = Aqueous solubility of the compound at physiological pH by H-NMR analysis; format: physicochemical; conditions: aqueous solution
[32] = test system: Paracentrotus lividus; assay: Antimitotic activity against sea urchin embryo assessed as cleavage alteration measured 2.5 to 5.5 hrs post-fertilization using compound stored for 13 hrs in 96% EtOH at room temperature by light microscopy analysis; format: functional; conditions: time hrs 2.5-5.5
[33] = test system: Paracentrotus lividus; assay: Antimitotic activity against sea urchin embryo assessed as cleavage arrest measured 2.5 to 5.5 hrs post-fertilization using compound stored for 4.5 days in 96% EtOH at room temperature by light microscopy analysis; format: functional; conditions: time hrs 2.5-5.5
[34] = test system: Paracentrotus lividus; assay: Antimitotic activity against sea urchin embryo assessed as cleavage alteration measured 2.5 to 5.5 hrs post-fertilization using compound stored for 4.5 days in 96% EtOH at room temperature by light microscopy analysis; format: functional; conditions: time hrs 2.5-5.5
[35] = test system: Paracentrotus lividus; assay: Antimitotic activity against sea urchin embryo assessed as cleavage arrest measured 2.5 to 5.5 hrs post-fertilization using compound stored for 2.5 days in 96% EtOH at room temperature by light microscopy analysis; format: functional; conditions: time hrs 2.5-5.5
[36] = test system: Paracentrotus lividus; assay: Antimitotic activity against sea urchin embryo assessed as cleavage alteration measured 2.5 to 5.5 hrs post-fertilization using compound stored for 2.5 days in 96% EtOH at room temperature by light microscopy analysis; format: functional; conditions: time hrs 2.5-5.5
[37] = test system: Paracentrotus lividus; assay: Antimitotic activity against sea urchin embryo assessed as cleavage arrest measured 2.5 to 5.5 hrs post-fertilization using compound stored for 13 hrs in 96% EtOH at room temperature by light microscopy analysis; format: functional; conditions: time hrs 2.5-5.5
[38] = Selectivity ratio of IC50 for human HFF cells to IC50 for human A-375 cells assessed as cell growth inhibition

O=P(O)(O)C(O)(Cc1cccnc1)P(=O)(O)O [RISEDRONIC ACID]
IC50 [1]: 248 µM

O=C(Nc1ccncc1)C(=O)c1cn(Cc2ccc(Cl)cc2)c2ccccc12 [INDIBULIN]
IC50 [2]: 0.05 µM | EC [3]: 0.02 µM | IC50 [4]: 0.05 µM | IC50 [5]: 0.04 µM | EC [6]: 0.1 µM | IC50 [7]: 0.2 µM | IC50 [8]: 0.398 µM | EC [9]: 0.01 µM | IC50 [10]: 0.04 µM | CAC [11]: 0.00039 mg/mL

CCOP(=O)(OCC)C(Cn1cc(C(=O)C(=O)Nc2ccc(OC)cc2)c2ccccc21)P(=O)(OCC)OCC
EC [12]: 0.5 µM | EC [13]: 0.002 µM | EC [14]: 0.005 µM | EC [15]: 0.2 µM | EC [16]: 0.1 µM | EC [17]: 0.02 µM | EC [6]: 0.2 µM | EC [18]: 0.005 µM | EC [19]: 0.02 µM

Nc1ncnc2c1ccn2[C@@H]1O[C@H](CO)[C@@H](O)[C@H]1O [TUBERCIDIN]
IC50 [2]: 0.082 µM | IC50 [4]: 0.256 µM | IC50 [20]: 0.79 µM | IC50 [21]: 0.043 µM | IC50 [5]: 0.013 µM | IC50 [7]: 0.131 µM | IC50 [8]: 0.044 µM | IC50 [10]: 0.076 µM

O=C(Nc1ccc2c(c1)OCCO2)C(=O)c1c[nH]c2ccccc12
EC [22]: 0.005 µM | EC [23]: 0.002 µM | EC [6]: 0.02 µM

CCOP(=O)(OCC)C(Cn1cc(C(=O)C(=O)Nc2ccc3c(c2)OCCO3)c2ccccc21)P(=O)(OCC)OCC
EC [12]: 0.5 µM | EC [15]: 0.2 µM | EC [6]: 0.1 µM

O=P(O)(O)C(O)(Cn1ccnc1)P(=O)(O)O [ZOLEDRONIC ACID]
IC50 [24]: 10 µM | IC50 [25]: 10 µM | IC50 [26]: 10 µM | IC50 [27]: 10 µM | IC50 [28]: 10 µM | IC50 [29]: 10 µM

NCCC(O)(P(=O)(O)O)P(=O)(O)O [PAMIDRONIC ACID]
IC50 [1]: 22.9 µM | IC50 [30]: 147 µM

CCOP(=O)(OCC)C(Cn1cc(C(=O)C(=O)Nc2ccc(OC)cc2)c2ccc(F)cc21)P(=O)(OCC)OCC
EC [12]: 0.5 µM | EC [15]: 0.2 µM | EC [6]: 0.5 µM

CCOP(=O)(OCC)C(Cn1cc(C(=O)C(=O)O)c2ccc(F)cc21)P(=O)(OCC)OCC
EC [3]: >4 µM | EC [6]: > 4 µM | EC [9]: >4 µM

COc1cccc(NC(=O)C(=O)c2c[nH]c3cc(F)ccc23)c1
EC [22]: >4 µM | EC [23]: 0.2 µM | EC [6]: > 4 µM

NCCCC(O)(P(=O)(O)O)P(=O)(O)O [ALENDRONIC ACID]
IC50 [1]: 69.5 µM

COc1ccc(NC(=O)C(=O)c2cn(CC(P(=O)(O)O)P(=O)(O)O)c3ccccc23)cc1 [listing 1 of 2 here]
EC [6]: 0.005 µM

COc1ccc(NC(=O)C(=O)c2cn(CC(P(=O)([O-])[O-])P(=O)([O-])[O-])c3ccccc23)cc1.[Na+].[Na+].[Na+].[Na+]
solubility [31]: 10000 µg/mL

COc1ccc(NC(=O)C(=O)c2c[nH]c3ccccc23)cc1
EC [22]: 0.005 µM | EC [23]: 0.001 µM | EC [6]: 0.2 µM

O=C(Nc1ccc2c(c1)OCCO2)C(=O)c1c[nH]c2cc(F)ccc12
EC [22]: 0.02 µM | EC [23]: 0.005 µM | EC [6]: 0.5 µM

CCOP(=O)(OCC)C(Cn1cc(C(=O)C(=O)Nc2ccc3c(c2)OCCO3)c2ccc(F)cc21)P(=O)(OCC)OCC
EC [12]: 0.5 µM | EC [32]: 0.02 µM | EC [33]: 0.01 µM | EC [34]: <0.01 µM | EC [35]: 0.02 µM | EC [36]: <0.02 µM | EC [15]: 0.2 µM | EC [6]: 0.1 µM | EC [37]: 0.05 µM

COc1ccc(NC(=O)C(=O)c2cn(CC(P(=O)(O)O)P(=O)(O)O)c3ccccc23)cc1 [listing 2 of 2 here]
Ratio IC50 [38]: 70 | IC50 [2]: 0.222 µM | EC [3]: 0.002 µM | IC50 [4]: 0.478 µM | IC50 [20]: 2.39 µM | IC50 [21]: 0.034 µM | IC50 [5]: 0.658 µM | IC50 [7]: 3.23 µM | IC50 [8]: 0.223 µM | EC [9]: 0.001 µM | IC50 [10]: 7.54 µM

COc1ccc(NC(=O)C(=O)c2c[nH]c3cc(F)ccc23)cc1
EC [22]: 0.005 µM | EC [23]: 0.001 µM | EC [6]: 1 µM

CCOP(=O)(OCC)C(Cn1cc(C(=O)C(=O)Nc2cccc(OC)c2)c2ccc(F)cc21)P(=O)(OCC)OCC
EC [12]: 1 µM | EC [15]: >4 µM | EC [6]: > 4 µM
